According to patent publication US9993478B2, “1-pyrazolyl-3-(4-((2-anilinopyrimidin-4-yl) oxy) napththalen-1-yl) ureas as P38 MAP knase inhibitors” (Respivert Ltd., priority 2011, dated 2018):

Legend:
A/J mice = test: Cigarette smoke model; type: in vivo; conditions: tobacco smoke
Experimental: A/J mice (males, 5 weeks old) were exposed to cigarette smoke (4% cigarette smoke, diluted with air) for 30 min/day for 11 days using a Tobacco Smoke Inhalation Experiment System for small animals (Model SIS-CS; Sibata Scientific Technology, Tokyo, Japan). Test substances were administered intra-nasally (35 μL of solution in 50% DMSO/PBS) once daily for 3 days after the final cigarette smoke exposure. At 12 hr after the last dosing, each of the animals was anesthetized, the trachea cannulated and bronchoalveolar lavage fluid (BALF) was collected. The numbers of alveolar macrophages and neutrophils were determined by FACS analysis (EPICS® ALTRA II, Beckman Coulter, Inc., Fullerton, Calif., USA) using anti-mouse MOMA2 antibody (macrophage) or anti-mouse 7/4 antibody (neutrophil). BALF was centrifuged and the supernatant was collected. The level of keratinocyte chemoattractant (KC; CXCL1) in BALF was quantitated using a Quentikine® mouse KC ELISA kit (R&D systems, Inc., Minneapolis, Minn., USA).

d-U937 cells = test: Cell viability: MTT assay; type: cell-based, human; conditions: 1 μg/mL
Method in brief: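 Differentiated U937 cells exposed to compound at 1 or 10 μg/mL final, either 4 h in 5% FCS RPMI1640 or 24 h in 10% FCS RPMI1640. After medium replacement, MTT added 1 h, formazan dissolved in DMSO, A550 read. % viability loss vs 0.5% DMSO vehicle; apparent viability gain shown as negative %.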

## Cc1ccc(-n2nc(C(C)(C)C)cc2NC(=O)Nc2ccc(Oc3ccnc(Nc4ccccc4)n3)c3ccccc23)cc1 [Example 1, 1-(3-(tert-Butyl)-1-(p-tolyl)-1H-pyrazol-5-yl)-3-(4-(2-(phenylamino)pyrimidin-4-yloxy)naphthalen-1-yl)urea]
A/J mice; 0.32 μg/mL intra-nasal
  Macrophage numbers in BALF % inhibition: 11%
  Neutrophil numbers in BALF % inhibition: 12%
A/J mice; 1.6 μg/mL intra-nasal
  Macrophage numbers in BALF % inhibition: 28%
  Neutrophil numbers in BALF % inhibition: 29%
A/J mice; 8.0 μg/mL intra-nasal
  Macrophage numbers in BALF % inhibition: 43%
  Neutrophil numbers in BALF % inhibition: 41%
A/J mice; 40 μg/mL intra-nasal
  Macrophage numbers in BALF % inhibition: 64%
  Neutrophil numbers in BALF % inhibition: 52%
d-U937 cells; 4 h
  MTT Assay Cell viability at time point in d-U937 Cells 4 h: −ve (−ve and +ve indicate the value is below and above respectively, the no significant effect threshold defined as 30% inhibition at 1 μg/mL at the time point indicated)
d-U937 cells; 24 h
  MTT Assay Cell viability at time point in d-U937 Cells 24 h: −ve (−ve and +ve indicate the value is below and above respectively, the no significant effect threshold defined as 30% inhibition at 1 μg/mL at the time point indicated)
